How the values were obtained:
KMS34 [1] = assay: Cell death in Venetoclax-resistant MM cell line KMS34; type: cell-based; settings: compared with Venetoclax and Navitoclax
[2] = tested on: KMS27 drug-resistant (DTEP) clones; assay: Venetoclax-resistant DTEP clones of KMS27 MM cell line: proliferation and apoptosis; type: cell-based
From the text: Compared with the parent cells, IC50 is increased by at least 3 to 10 times.

primary MM cells = assay: Primary MM cells from 4 MM patients in vitro; type: cell-based, human; settings: compared with venetoclax
From the text: The activity of compound E was confirmed in primary MM cells in vitro.

MM1.S [3] = assay: Cell death in Venetoclax-resistant MM cell line MM1.S; type: cell-based; settings: compared with Venetoclax and Navitoclax
RPMI 8226 cells = assay: Cell viability CTG assay in BCL-2i insensitive RPMI 8226 MM cells; type: cell-based
Method: (§1) Cell viability was determined using CellTiter-Glo® luminescent cell viability assay (Promega) or WST assay (Cell counting Kit-8, Shanghai life iLab, China) by following manufacturer's instruction. Cell viability was calculated as cell viability=(mean RLU sample−mean RLU blank)/(RLU cell control−RLU blank)×100. IC50 value was calculated using GraphPad Prism. Combination index (CI) value was calculated by CalcuSyn software (BIOSOFT, UK). CI<0.9 indicate a synergistic combination effect. CI<0.1 scored as 5+ indicates very strong synergistic combination effect, CI between 0.1 and 0.3 scored as 4+ indicates strong synergistic combination effect, CI between 0.3 and 0.7 scored as 3+ indicates medium synergistic combination effect.
Method used was the cell viability CTG assay.

KMS34 [4] = assay: CDX model of KMS34; type: in vivo
MM1.S [5] = assay: CDX model of MM1.S; type: in vivo
platelet = settings: compared with Compound E; cited from earlier work
NCI-H929 = assay: Cell viability CTG assay in BCL-2i resistant MM model NCI-H929; type: cell-based; settings: insensitive or resistant to BCL-2 inhibitor
Method: as §1
Method used was the cell viability CTG assay. BCL-2i resistant MM mode NCI-H929 was established.

[6] = tested on: RS4;11 cells carrying different Bcl-2 mutation; assay: Cell viability CTG assay in RS4;11 cells, wild type and Bcl-2 mutants; type: cell-based, human
Method: Cell viability was determined using CellTiter-Glo® luminescent cell viability assay (Promega) or WST assay (Cell counting Kit-8, Shanghai life iLab, China) by following manufacturer's instruction. Cell viability was calculated as cell viability=(mean RLU sample−mean RLU blank)/(RLU cell control−RLU blank)×100. IC50 value was calculated using GraphPad Prism. Combination index (CI) value was calculated by CalcuSyn software (BIOSOFT, UK). CI<0.9 indicate a synergistic combination effect. CI<0.1 scored as 5+ indicates very strong synergistic combination effect, CI between 0.1 and 0.3 scored as 4+ indicates strong synergistic combination effect, CI between 0.3 and 0.7 scored as 3+ indicates medium synergistic combination effect. Method used was the cell viability CTG assay. RS4;11 cells were established from the bone marrow of a patient with acute lymphoblastic leukemia (ALL).

In the case of `Cc1c(S(C)(=O)=O)c(-c2cc(F)cc(N3CCN(c4ccc(NS(=O)(=O)c5ccc(N[C@H](CCN6CCC(C(=O)O)CC6)CSc6ccccc6)c(S(=O)(=O)C(F)(F)F)c5)cc4)CC3)c2)c(-c2ccc(Cl)cc2)n1C(C)C` [APG-1252M1], the cell death induction (KMS34 [1]) is reported as “the most effective in inducing cell death”, the apoptosis [2] is reported as “induced apoptosis” and the “proliferation of drug-resistant clones” value ([2]; compared with Venetoclax) is reported as “successfully inhibited the proliferation of drug-resistant clones”. For the same compound, the “activity in primary MM cells” value (primary MM cells) was “higher than venetoclax”, the cell death induction (MM1.S [3]) was “the most effective in inducing cell death” and the “inhibition of cell proliferation” value (RPMI 8226 cells; RPMI 8226 model, insensitive to BCL-2 inhibitor) was “single agent activity in inhibiting cell proliferation”.
In the case of `Cc1c(S(C)(=O)=O)c(-c2cc(F)cc(N3CCN(c4ccc(NS(=O)(=O)c5ccc(N[C@H](CCN6CCC(C(=O)OCCCP(=O)(O)O)CC6)CSc6ccccc6)c(S(=O)(=O)C(F)(F)F)c5)cc4)CC3)c2)c(-c2ccc(Cl)cc2)n1C(C)C` [compound D, (3R)-1-(3-(4-(4-(4-(3-(2-(4-chlorophenyl)-1-isopropyl-4-methylsulfonyl-5-methyl-1H-pyrrol-3-yl)-5-fluorophenyl)piperazin-1-yl)-phenylaminosulfonyl)-2-trifluoromethylsulfonyl-anilino)-4-phenylthio-butyl)-piperidine-4-carboxylic acid 3-phosphonopropyl ester], the “efficacy in CDX model” value (KMS34 [4]) is listed as “also effective”, the “efficacy in CDX model” value (MM1.S [5]) is listed as “also effective” and the platelet toxicity (platelet) is listed as “lower platelet toxicity”.
In the case of `O=C(NS(=O)(=O)c1ccc(NC[C@H]2COCCO2)c([N+](=O)[O-])c1)c1ccc(N2CCN(CC3=C(c4ccc(Cl)cc4)CC4(CCC4)CC3)CC2)cc1Oc1cnc2[nH]ccc2c1` [APG-2575, (S)—N-((4-(((1,4-dioxan-2-yl)methyl)amino)-3-nitrophenyl)sulfonyl)-2-((1H-pyrrolo[2,3-b]pyridin-5-yl)oxy)-4-(4-((6-(4-chlorophenyl)spiro[3.5]non-6-en-7-yl)methyl)piperazin-1-yl)benzamide], the IC50 (RPMI 8226 cells; Homo sapiens, RPMI 8226 cells, CTG) is reported as 5.58 µM.
For `CN[C@@H](C)C(=O)N[C@H]1CN(S(=O)(=O)c2cccc(S(=O)(=O)N3CC[C@H]4CC[C@@H](C(=O)NC(c5ccccc5)c5ccccc5)N4C(=O)[C@@H](NC(=O)[C@H](C)NC)C3)c2)CC[C@H]2CC[C@@H](C(=O)NC(c3ccccc3)c3ccccc3)N2C1=O` [APG-1387], the “inhibition of cell proliferation” value (NCI-H929) was “single agent activity to inhibit cell proliferation”.
With `CCN1[C@@H](C(=O)NC23CCC(C(=O)O)(CC2)CC3)[C@H](c2cccc(Cl)c2F)[C@]2(C(=O)Nc3cc(Cl)ccc32)C12CCCCC2` [APG-115] the cell viability ([6]; RS4;11-WT and RS4;11 carrying G101V, D103E, V156D, G101V-D103E, CTG) was “effectively decrease cell viability” and the “IC50 (CTG 72 h) compared with ABT-199 (venetoclax)” value ([6]; all RS4;11 cell lines (WT and Bcl-2 mutants), 72 h) was “lower than those of ABT-199 (venetoclax) in all cell lines”.
